Legend:
[1] = target: Serine/threonine-protein kinase Nek6 (Homo sapiens) (UniProt Q9HC98); conditions: Compound concentration 100.0 nM
[2] = test system: Tyrosine-protein kinase ABL1 (Homo sapiens), P00519 [F317L]; conditions: Compound concentration 100.0 nM
[3] = target: Dual specificity protein kinase TTK (Homo sapiens) (UniProt P33981); conditions: Compound concentration 100.0 nM
[4] = target: Serine/threonine-protein kinase MRCK beta (Homo sapiens) (UniProt Q9Y5S2); conditions: Compound concentration 100.0 nM
[5] = test system: Epidermal growth factor receptor (Homo sapiens), P00533 [UNDEFINED MUTATION]; conditions: Compound concentration 100.0 nM
[6] = target: Serine/threonine-protein kinase LATS1 (Homo sapiens) (UniProt O95835); conditions: Compound concentration 100.0 nM
[7] = target: NT-3 growth factor receptor (Homo sapiens) (UniProt Q16288); conditions: Compound concentration 100.0 nM
[8] = target: Bone morphogenetic protein receptor type-1B (Homo sapiens) (UniProt O00238); conditions: Compound concentration 100.0 nM
Bone morphogenetic protein receptor type-1B (Homo sapiens), sequence (O00238 whole entry): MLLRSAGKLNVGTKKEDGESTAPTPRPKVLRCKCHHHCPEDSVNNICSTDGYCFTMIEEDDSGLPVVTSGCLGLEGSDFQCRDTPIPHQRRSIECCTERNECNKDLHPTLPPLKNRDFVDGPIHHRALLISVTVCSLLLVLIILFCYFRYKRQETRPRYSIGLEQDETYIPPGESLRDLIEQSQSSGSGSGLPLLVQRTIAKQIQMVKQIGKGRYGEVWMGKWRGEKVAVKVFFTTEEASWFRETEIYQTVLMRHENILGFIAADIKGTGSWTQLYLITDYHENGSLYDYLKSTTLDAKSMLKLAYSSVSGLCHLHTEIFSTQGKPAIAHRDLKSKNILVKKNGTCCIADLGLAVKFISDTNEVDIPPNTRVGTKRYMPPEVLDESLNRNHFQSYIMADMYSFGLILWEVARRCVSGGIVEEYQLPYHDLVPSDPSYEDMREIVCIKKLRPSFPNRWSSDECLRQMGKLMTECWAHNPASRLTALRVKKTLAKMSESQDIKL

[9] = target: SNF-related serine/threonine-protein kinase (Homo sapiens) (UniProt Q9NRH2); conditions: Compound concentration 100.0 nM
[10] = target: Interferon-induced, double-stranded RNA-activated protein kinase (Homo sapiens) (UniProt P19525); conditions: Compound concentration 100.0 nM
[11] = target: GABA-A receptor; anion channel (Rattus norvegicus) (UniProt O09028+P15431+P18506+P18508+P19969+P20236+P23574+P23576+P28471+P28473+P30191+P62813+P63079+P63138+Q91ZM7+Q9ES14); conditions: Compound concentration 10.0 uM
[12] = target: Cyclin-dependent kinase-like 5 (Homo sapiens) (UniProt O76039); conditions: Compound concentration 100.0 nM
[13] = target: Serine/threonine-protein kinase PLK3 (Homo sapiens) (UniProt Q9H4B4); conditions: Compound concentration 100.0 nM
[14] = target: STE20/SPS1-related proline-alanine-rich protein kinase (Homo sapiens) (UniProt Q9UEW8); conditions: Compound concentration 100.0 nM
[15] = test system: Tyrosine-protein kinase ABL1 (Homo sapiens), P00519 [T315I]; conditions: Compound concentration 100.0 nM
[16] = target: Serine/threonine-protein kinase 4 (Homo sapiens) (UniProt Q13043); conditions: Compound concentration 100.0 nM
[17] = target: Calcium/calmodulin-dependent protein kinase type 1G (Homo sapiens) (UniProt Q96NX5); conditions: Compound concentration 100.0 nM
[18] = test system: Epidermal growth factor receptor (Homo sapiens), P00533 [L858R]; conditions: Compound concentration 100.0 nM
[19] = target: Serine/threonine-protein kinase PAK 4 (Homo sapiens) (UniProt O96013); conditions: Compound concentration 100.0 nM
[20] = target: 3-phosphoinositide-dependent protein kinase 1 (Homo sapiens) (UniProt O15530); conditions: Compound concentration 100.0 nM
[21] = target: Dual specificity mitogen-activated protein kinase kinase 6 (Homo sapiens) (UniProt P52564); conditions: Compound concentration 100.0 nM
[22] = target: Inhibitor of nuclear factor kappa-B kinase subunit beta (Homo sapiens) (UniProt O14920); conditions: Compound concentration 100.0 nM
[23] = target: Fibroblast growth factor receptor 1 (Homo sapiens) (UniProt P11362); conditions: Compound concentration 100.0 nM
[24] = target: Atypical kinase COQ8B, mitochondrial (Homo sapiens) (UniProt Q96D53); conditions: Compound concentration 100.0 nM
Atypical kinase COQ8B, mitochondrial (Homo sapiens), sequence (Q96D53 whole entry): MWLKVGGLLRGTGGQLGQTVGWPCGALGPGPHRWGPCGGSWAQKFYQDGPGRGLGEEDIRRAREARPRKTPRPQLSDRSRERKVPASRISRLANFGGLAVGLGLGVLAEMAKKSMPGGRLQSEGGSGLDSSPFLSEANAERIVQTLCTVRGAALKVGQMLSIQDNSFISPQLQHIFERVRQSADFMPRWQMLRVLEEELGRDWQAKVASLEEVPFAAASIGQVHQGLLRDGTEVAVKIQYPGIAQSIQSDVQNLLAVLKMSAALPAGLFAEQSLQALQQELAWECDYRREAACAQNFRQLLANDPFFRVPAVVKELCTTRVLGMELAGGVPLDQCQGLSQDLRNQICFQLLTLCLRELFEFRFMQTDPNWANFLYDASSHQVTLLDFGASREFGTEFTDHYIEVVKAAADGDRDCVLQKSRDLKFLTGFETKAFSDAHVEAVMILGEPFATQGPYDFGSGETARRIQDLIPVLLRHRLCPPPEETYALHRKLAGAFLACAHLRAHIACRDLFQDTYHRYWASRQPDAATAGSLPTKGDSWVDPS

[25] = test system: Tyrosine-protein kinase ABL1 (Homo sapiens), P00519 [H396P]; conditions: Compound concentration 100.0 nM
[26] = target: Phosphatidylinositol 4,5-bisphosphate 3-kinase catalytic subunit alpha isoform (Homo sapiens) (UniProt P42336); conditions: Compound concentration 100.0 nM
[27] = target: Serine/threonine-protein kinase ICK (Homo sapiens) (UniProt Q9UPZ9); conditions: Compound concentration 100.0 nM
[28] = target: Serine/threonine-protein kinase 36 (Homo sapiens) (UniProt Q9NRP7); conditions: Compound concentration 100.0 nM
[29] = target: Insulin receptor (Homo sapiens) (UniProt P06213); conditions: Compound concentration 100.0 nM
[30] = target: D(4) dopamine receptor (Homo sapiens) (UniProt P21917); conditions: Compound concentration 10.0 uM
[31] = target: Myosin light chain kinase family member 4 (Homo sapiens) (UniProt Q86YV6); conditions: Compound concentration 100.0 nM
[32] = target: BDNF/NT-3 growth factors receptor (Homo sapiens) (UniProt Q16620); conditions: Compound concentration 100.0 nM
[33] = target: Cyclin-dependent kinase 3 (Homo sapiens) (UniProt Q00526); conditions: Compound concentration 100.0 nM
Cyclin-dependent kinase 3 (Homo sapiens), sequence (Q00526 whole entry, looked up): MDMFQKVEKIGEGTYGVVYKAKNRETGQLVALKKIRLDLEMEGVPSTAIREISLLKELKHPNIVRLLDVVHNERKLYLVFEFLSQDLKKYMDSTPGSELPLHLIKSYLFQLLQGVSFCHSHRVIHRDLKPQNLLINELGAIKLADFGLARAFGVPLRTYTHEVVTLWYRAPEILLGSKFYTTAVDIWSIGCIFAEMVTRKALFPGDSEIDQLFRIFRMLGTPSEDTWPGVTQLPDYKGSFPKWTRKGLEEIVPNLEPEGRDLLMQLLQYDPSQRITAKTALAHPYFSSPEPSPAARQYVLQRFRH

[34] = target: Serine/threonine-protein kinase pim-1 (Homo sapiens) (UniProt P11309); conditions: Compound concentration 100.0 nM
[35] = target: Mitotic checkpoint serine/threonine-protein kinase BUB1 (Homo sapiens) (UniProt O43683); conditions: Compound concentration 100.0 nM
[36] = target: Casein kinase I isoform alpha-like (Homo sapiens) (UniProt Q8N752); conditions: Compound concentration 100.0 nM
[37] = target: Casein kinase I isoform delta (Homo sapiens) (UniProt P48730); conditions: Compound concentration 100.0 nM
Casein kinase I isoform delta (Homo sapiens), sequence (P48730 whole entry, looked up, canonical isoform): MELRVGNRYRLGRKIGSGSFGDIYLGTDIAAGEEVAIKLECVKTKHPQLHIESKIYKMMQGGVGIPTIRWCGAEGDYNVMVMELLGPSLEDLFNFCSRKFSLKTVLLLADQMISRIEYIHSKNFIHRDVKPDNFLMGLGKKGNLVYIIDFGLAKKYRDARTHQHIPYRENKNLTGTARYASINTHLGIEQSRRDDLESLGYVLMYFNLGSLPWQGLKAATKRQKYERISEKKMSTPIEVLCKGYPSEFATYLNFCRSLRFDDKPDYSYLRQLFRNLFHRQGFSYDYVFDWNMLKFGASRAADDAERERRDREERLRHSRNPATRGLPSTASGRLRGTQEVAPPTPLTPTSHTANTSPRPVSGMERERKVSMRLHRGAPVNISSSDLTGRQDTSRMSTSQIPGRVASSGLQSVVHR

[38] = target: Calcium/calmodulin-dependent protein kinase type II subunit delta (Homo sapiens) (UniProt Q13557); conditions: Compound concentration 100.0 nM
[39] = target: Fibroblast growth factor receptor 3 (Homo sapiens) (UniProt P22607); conditions: Compound concentration 100.0 nM
Fibroblast growth factor receptor 3 (Homo sapiens), sequence (P22607 23-806 limits assumed): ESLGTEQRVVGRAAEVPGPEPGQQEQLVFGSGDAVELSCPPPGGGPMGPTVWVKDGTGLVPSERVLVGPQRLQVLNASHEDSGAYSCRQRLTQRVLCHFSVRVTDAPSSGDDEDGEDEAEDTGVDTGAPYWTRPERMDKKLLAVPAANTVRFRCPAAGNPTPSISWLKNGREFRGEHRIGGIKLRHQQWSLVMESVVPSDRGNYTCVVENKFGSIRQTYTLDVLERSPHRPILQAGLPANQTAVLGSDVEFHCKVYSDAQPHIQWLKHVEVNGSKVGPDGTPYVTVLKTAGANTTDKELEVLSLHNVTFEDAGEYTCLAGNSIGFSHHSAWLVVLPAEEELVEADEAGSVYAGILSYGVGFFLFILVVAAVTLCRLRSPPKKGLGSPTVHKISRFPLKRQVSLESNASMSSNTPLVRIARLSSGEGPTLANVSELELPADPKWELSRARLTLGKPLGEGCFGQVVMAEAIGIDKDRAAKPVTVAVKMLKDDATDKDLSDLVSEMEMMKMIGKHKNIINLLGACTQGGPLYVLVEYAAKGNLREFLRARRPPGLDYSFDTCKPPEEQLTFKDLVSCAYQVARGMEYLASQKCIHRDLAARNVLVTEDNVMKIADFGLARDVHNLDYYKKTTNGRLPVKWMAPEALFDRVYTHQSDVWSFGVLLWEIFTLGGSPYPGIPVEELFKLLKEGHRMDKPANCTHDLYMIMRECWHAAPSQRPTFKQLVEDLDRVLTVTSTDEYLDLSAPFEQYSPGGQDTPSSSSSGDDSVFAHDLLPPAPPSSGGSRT

[40] = target: 3',5'-cyclic-AMP phosphodiesterase 4A (Homo sapiens, UniProt P27815); assay: Biochemical assay (PDE4A)
[41] = target: Rho-associated protein kinase 2 (Homo sapiens) (UniProt O75116); conditions: Compound concentration 100.0 nM
Rho-associated protein kinase 2 (Homo sapiens), sequence (O75116 whole entry, looked up): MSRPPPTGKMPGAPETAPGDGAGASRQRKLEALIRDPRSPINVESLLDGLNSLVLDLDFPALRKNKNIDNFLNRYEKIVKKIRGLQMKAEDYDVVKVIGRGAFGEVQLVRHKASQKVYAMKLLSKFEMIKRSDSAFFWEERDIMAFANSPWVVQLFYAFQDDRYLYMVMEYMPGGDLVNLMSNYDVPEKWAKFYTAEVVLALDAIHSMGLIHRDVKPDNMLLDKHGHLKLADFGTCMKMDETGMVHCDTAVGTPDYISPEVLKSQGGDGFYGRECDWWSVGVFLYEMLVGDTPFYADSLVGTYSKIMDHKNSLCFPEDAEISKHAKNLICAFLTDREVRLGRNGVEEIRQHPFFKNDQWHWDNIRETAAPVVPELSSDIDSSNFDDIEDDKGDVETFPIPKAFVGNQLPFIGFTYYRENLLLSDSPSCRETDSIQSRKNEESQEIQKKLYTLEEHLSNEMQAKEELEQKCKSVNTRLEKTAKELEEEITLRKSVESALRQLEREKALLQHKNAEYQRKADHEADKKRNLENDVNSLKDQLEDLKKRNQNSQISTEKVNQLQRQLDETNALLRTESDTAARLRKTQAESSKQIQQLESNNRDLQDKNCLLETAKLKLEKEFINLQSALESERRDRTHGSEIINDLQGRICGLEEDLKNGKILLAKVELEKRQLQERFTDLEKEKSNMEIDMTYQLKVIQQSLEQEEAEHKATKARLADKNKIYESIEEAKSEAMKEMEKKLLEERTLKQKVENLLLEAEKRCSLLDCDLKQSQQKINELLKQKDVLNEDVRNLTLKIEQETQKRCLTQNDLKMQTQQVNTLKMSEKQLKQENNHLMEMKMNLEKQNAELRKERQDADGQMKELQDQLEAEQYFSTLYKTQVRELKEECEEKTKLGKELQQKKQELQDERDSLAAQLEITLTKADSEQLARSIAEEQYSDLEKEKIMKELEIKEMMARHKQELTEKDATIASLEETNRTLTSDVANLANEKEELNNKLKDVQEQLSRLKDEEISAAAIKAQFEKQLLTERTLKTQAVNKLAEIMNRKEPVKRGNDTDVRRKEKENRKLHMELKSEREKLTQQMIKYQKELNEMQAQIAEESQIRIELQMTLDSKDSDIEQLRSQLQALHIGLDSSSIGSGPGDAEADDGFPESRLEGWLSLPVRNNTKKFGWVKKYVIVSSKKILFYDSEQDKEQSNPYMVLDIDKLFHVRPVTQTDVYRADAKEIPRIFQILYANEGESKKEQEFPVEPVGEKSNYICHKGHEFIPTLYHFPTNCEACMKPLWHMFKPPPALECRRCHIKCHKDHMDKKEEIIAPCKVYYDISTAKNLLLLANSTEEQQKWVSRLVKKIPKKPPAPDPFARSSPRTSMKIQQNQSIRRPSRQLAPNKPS

[42] = target: Ribosomal protein S6 kinase alpha-1 (Homo sapiens) (UniProt Q15418); conditions: Compound concentration 100.0 nM
Ribosomal protein S6 kinase alpha-1 (Homo sapiens), sequence (Q15418 whole entry): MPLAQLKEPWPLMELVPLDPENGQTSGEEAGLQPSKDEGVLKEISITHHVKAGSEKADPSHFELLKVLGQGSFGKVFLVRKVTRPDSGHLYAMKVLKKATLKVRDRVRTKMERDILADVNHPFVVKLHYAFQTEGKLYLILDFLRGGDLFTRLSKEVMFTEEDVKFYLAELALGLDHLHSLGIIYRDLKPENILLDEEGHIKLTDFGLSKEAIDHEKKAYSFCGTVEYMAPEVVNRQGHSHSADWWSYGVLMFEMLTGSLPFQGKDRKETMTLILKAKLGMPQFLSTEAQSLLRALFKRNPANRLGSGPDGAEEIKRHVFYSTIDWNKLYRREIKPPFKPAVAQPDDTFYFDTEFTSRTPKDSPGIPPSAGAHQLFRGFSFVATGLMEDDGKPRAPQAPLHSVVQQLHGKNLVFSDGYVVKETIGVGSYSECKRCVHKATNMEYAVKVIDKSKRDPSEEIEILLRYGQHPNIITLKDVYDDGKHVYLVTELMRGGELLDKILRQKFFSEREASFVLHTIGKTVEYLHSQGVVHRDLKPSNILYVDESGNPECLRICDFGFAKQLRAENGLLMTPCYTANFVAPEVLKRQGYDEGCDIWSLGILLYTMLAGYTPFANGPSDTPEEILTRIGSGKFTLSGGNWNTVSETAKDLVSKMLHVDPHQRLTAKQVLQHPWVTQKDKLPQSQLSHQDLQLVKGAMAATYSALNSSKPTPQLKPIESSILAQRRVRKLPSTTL

[43] = target: Serine/threonine-protein kinase SBK1 (Homo sapiens) (UniProt Q52WX2); conditions: Compound concentration 100.0 nM
[44] = target: Ephrin type-A receptor 6 (Homo sapiens) (UniProt Q9UF33); conditions: Compound concentration 100.0 nM

Serine/threonine-protein kinase Nek6 (Homo sapiens), sequence (Q9HC98 whole entry): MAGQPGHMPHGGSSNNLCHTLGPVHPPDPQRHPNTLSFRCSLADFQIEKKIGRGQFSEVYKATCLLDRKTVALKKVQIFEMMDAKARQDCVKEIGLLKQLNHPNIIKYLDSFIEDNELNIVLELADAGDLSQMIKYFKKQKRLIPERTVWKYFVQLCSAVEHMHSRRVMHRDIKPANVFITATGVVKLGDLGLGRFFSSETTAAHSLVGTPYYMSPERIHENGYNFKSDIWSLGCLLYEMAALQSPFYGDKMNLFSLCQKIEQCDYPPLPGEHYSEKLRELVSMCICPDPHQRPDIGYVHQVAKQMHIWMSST

CC(C)CC(=O)N1CCc2nc(-c3ccc(Br)cc3)nc(N(C)Cc3ccccc3)c2C1 [THPP-1-NC]
9.83 µM (not active): Ki [40]
inactive: residual activity [1] 100% | residual activity [2] 100% | residual activity [3] 100% | residual activity [4] 99% | residual activity [5] 100% | residual activity [6] 67% | residual activity [7] 100% | residual activity [8] 100% | residual activity [9] 84% | residual activity [10] 100% | inhibition [11] -3.36% | residual activity [12] 100% | residual activity [13] 100% | residual activity [14] 100% | residual activity [15] 100% | residual activity [16] 100% | residual activity [17] 100% | residual activity [18] 94% | residual activity [19] 100% | residual activity [20] 100% | residual activity [21] 100% | residual activity [22] 100% | residual activity [23] 100% | residual activity [24] 100% | residual activity [25] 68% | residual activity [26] 77% | residual activity [27] 100% | residual activity [28] 78% | residual activity [29] 84% | inhibition [30] 7.93% | residual activity [31] 100% | residual activity [32] 100% | residual activity [33] 100% | residual activity [34] 100% | residual activity [35] 78% | residual activity [36] 100% | residual activity [37] 83% | residual activity [38] 100% | residual activity [39] 100% | residual activity [41] 74% | residual activity [42] 100% | residual activity [43] 100% | residual activity [44] 100%

COCCOc1nc(-c2ccc(Cl)nc2)nc2c1CN(C(=O)c1ncn3ccccc13)CC2 [THPP-1]
5.9 µM (not active): Ki [40]
inactive: residual activity [1] 100% | residual activity [2] 100% | residual activity [3] 100% | residual activity [4] 100% | residual activity [5] 80% | residual activity [6] 70% | residual activity [7] 100% | residual activity [8] 100% | residual activity [9] 79% | residual activity [10] 100% | inhibition [11] 24.9% | residual activity [12] 100% | residual activity [13] 100% | residual activity [14] 100% | residual activity [15] 75% | residual activity [16] 100% | residual activity [17] 100% | residual activity [18] 83% | residual activity [19] 100% | residual activity [20] 90% | residual activity [21] 100% | residual activity [22] 100% | residual activity [23] 100% | residual activity [24] 100% | residual activity [25] 70% | residual activity [26] 85% | residual activity [27] 100% | residual activity [28] 79% | residual activity [29] 76% | inhibition [30] 15.7% | residual activity [31] 100% | residual activity [32] 100% | residual activity [33] 100% | residual activity [34] 100% | residual activity [35] 82% | residual activity [36] 100% | residual activity [37] 84% | residual activity [38] 100% | residual activity [39] 100% | residual activity [41] 76% | residual activity [42] 100% | residual activity [43] 100% | residual activity [44] 100%

Reference: ChEMBL document CHEMBL4507293 (2021)
